Measured values as given in patent US8440640B2, “Methods and compositions for treating obesity and related disorders” (University of Medicine and Dentistry of New Jersey, priority 2008, dated 2013).
“Also recorded” adds a separate entry of the source. Like-named read-outs stand apart in the source and are kept apart here.

Legend:
AC5 [1] = assay: Inhibition of recombinant AC5 (baculovirus overexpression system); type: biochemical; conditions: for Selectivity ratio for AC5, AC5/AC2: ratio of IC50 for AC5 to that for AC2; for Selectivity ratio for AC5, AC5/AC3: ratio of IC50 for AC5 to that for AC3
Description: (§2) Several drugs with the adenine-like structure for AC5 inhibitors were screened using recombinant proteins of several AC subtypes with a baculovirus overexpression system.

AC3 = biological target: T1, AC3 (Rattus norvegicus, UniProt P21932); assay: Inhibition of recombinant AC3 (baculovirus overexpression system); type: biochemical; conditions: for inhibition of AC3: in the presence of Gs-α/GTPαS/forskolin
T1 construct: made in house; host or cells: insect cells (baculovirus)
T1 sequence (P21932 1-1144): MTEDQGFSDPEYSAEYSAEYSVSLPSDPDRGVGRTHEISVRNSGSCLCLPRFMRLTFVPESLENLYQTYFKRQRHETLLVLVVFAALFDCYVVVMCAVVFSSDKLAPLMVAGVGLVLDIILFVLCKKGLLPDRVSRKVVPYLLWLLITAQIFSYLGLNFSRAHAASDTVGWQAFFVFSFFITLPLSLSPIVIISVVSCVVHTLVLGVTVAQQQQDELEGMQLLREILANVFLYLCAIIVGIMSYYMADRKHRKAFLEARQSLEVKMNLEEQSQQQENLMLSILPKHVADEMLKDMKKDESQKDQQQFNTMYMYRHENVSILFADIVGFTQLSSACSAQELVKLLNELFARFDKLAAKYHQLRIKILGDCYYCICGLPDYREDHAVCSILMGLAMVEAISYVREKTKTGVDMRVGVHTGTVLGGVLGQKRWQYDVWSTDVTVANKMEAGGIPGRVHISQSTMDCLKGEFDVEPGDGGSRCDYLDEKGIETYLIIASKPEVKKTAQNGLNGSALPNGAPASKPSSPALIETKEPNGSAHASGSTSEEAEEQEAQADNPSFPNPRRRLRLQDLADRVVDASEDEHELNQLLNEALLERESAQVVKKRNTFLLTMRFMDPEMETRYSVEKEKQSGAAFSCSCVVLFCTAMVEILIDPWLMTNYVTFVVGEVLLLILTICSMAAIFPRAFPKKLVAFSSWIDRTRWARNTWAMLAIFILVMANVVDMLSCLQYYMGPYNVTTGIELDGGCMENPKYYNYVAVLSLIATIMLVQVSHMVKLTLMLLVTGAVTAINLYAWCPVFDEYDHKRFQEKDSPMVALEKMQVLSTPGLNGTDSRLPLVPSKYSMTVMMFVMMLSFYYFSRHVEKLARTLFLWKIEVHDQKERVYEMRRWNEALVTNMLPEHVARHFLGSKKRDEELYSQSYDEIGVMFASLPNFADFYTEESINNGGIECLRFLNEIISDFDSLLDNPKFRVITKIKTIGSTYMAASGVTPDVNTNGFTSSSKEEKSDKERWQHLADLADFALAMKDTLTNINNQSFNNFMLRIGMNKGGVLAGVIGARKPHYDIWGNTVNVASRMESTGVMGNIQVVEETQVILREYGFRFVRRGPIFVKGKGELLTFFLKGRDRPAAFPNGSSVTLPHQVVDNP
Description: as §2

cardiac myocytes [2] = assay: ISO-induced cAMP accumulation in cardiac myocytes; type: cell-based, mouse
Excerpt: Decreases in cAMP in AC5 KO were observed only at high ISO concentrations. […] (Toya et al., J Mol Cell Cardiol., 1998; 30(1):97-108)

[3] = test system: cultured cardiac myocytes; assay: ISO-induced apoptosis and contraction in cultured cardiac myocytes; type: cell-based
AC5 [4] = biological target: AC5 (UniProt P30803); assay: Inhibition of recombinant AC5 (baculovirus overexpression system); type: biochemical; parameters: IC50 AC5
Description: as §2

AC2 [5] = biological target: AC2 (UniProt P26769); assay: Inhibition of recombinant AC2 (baculovirus overexpression system); conditions: for IC50: read-out: IC50 AC2, recombinant AC proteins, Table 1; for inhibition of AC2: in the presence of Gs-α/GTPαS/forskolin
Description: as §2

AC5 [6] = assay: Forskolin-stimulated 32P-cAMP production in heart membranes from AC5 Tg mice; type: biochemical, mouse; parameters: dose or concentration left out as unconfirmed; conditions: n=4
Description: To measure AC5 inhibition, in addition to membrane preparations from mouse heart, membrane preparations from mouse striatum were used because AC5 provides about 80% of total AC activity in the striatum, mimicking purified AC5. cAMP was measured with 50 mM forskolin (FSK) in the presence or absence of 10 mM of the indicated drugs).

AC6 = assay: Forskolin-stimulated 32P-cAMP production in heart membranes from AC6 Tg mice; type: biochemical, mouse; conditions: forskolin 50 mM, n=4
Description: (§1) Hearts were dissected from the mice and membrane preparations were prepared as described previously. Protein concentration was measured by the method of Bradford using bovine serum albumin as a standard. AC activity was measured as described previously. AC activity was linear within the incubation time up to 30 min. In order to harvest hearts for tissue cAMP content measurements, mice were allowed to acclimate to the surroundings in the laboratory for an hour before sacrifice. Freshly isolated hearts were briefly immersed in liquid nitrogen. The tissue was homogenized in ice-cold 6% percholic acid, and cAMP was extracted as described before. The concentration of cAMP was determined with an RIA kit (PerkinElmer Life Sciences, Boston, Mass., USA).

[7] = test system: AC activity in the heart of dogs; assay: Forskolin-induced haemodynamic response in instrumented dog; type: in vivo; conditions: AraAde 15 mg/kg intravenously, forskolin 50 nmol/kg
Excerpt: An adult mongrel dog (16.5 kg, male) was surgically instrumented, for measurements of LV pressure (P), LV dP/dt, aortic pressure, ascending aortic blood flow (stroke volume) and mean aortic blood flow (cardiac output). (a) The response to intravenous infusion of Forskolin (50 nmol/kg) is shown on the phasic waveforms on the left. LV dP/dt, aortic flow (stroke volume) and mean aortic flow (cardiac output) are increased.

[8] = test system: high-fat-diet-fed C57BL/6 mice; assay: High-fat-diet-fed C57BL/6 mice treated with AraAde; type: in vivo, mouse; parameters: insulin resistance, HOMA IR: unit not given here
[9] = test system: C57Bl/6 mice with chronic ISO infusion; assay: Chronic ISO infusion model; type: in vivo, mouse
Excerpt: Mice were then subjected to echocardiography (LVEF) (A); and tissue was harvested for pathological examination of myocardial apoptosis (by TUNEL) (B); and fibrosis (by PASR) (C). n=4-9.*p<0.05 vs. all other groups. […] Thus, this AC5 inhibitor is protective against the development of ISO-induced cardiomyopathy.

[10] = Tolerability of subcutaneous mini-osmotic pump infusion; type: in vivo; conditions: infused subcutaneously, up to 3 months
myocardial infarction = assay: Survival after myocardial infarction; conditions: in vivo
brain function = assay: Bradykinesia and locomotor activity; conditions: as observed in AC5 KO
AC5 [11] = biological target: AC5 (UniProt P30803); assay: Inhibition of recombinant AC5 (baculovirus overexpression system); type: biochemical; parameters: IC50 for AC5; other: in the presence of Gs-α/GTPαS/forskolin; conditions: in the presence of Gs-α/GTPαS/forskolin
Description: as §2

[12] = test system: AC activity in heart membranes; assay: ISO-stimulated AC activity in heart membranes of WT and AC5KO mice; type: biochemical, mouse; conditions: 10 μM
Description: as §1
cAMP production in membranes from the hearts of AC5KO and WT at 6 months of age was examined. The steady state AC activity was determined as the maximal capacity of cAMP production in the presence of ISO (100 μM ISO+100 μM GTP), GTPγS (100 μM) or forskolin (100 μM). […] Basal cardiac function was not decreased, but the response to ISO and muscarinic inhibition of ISO were attenuated.

AC5 [13] = conditions: cited from earlier work
cardiac myocytes [14] = conditions: cited from earlier work
AC2 [15] = conditions: previously noted; cited from earlier work
[16] = occur in roughly half of administered patients; cited from earlier work
[17] = recombinant AC proteins, Table 1, read-out: IC50 AC5
[18] = recombinant AC proteins, Table 1, read-out: IC50 AC3

C[C@H]1O[C@@H](n2cnc3c(N)ncnc32)C[C@@H]1O [2′5′-dd-Ado, 2′5′ dideoxyadenosine]
Selectivity ratio for AC5, AC5/AC2 (AC5 [1]): 0.00067
Selectivity ratio for AC5, AC5/AC3 (AC5 [1]): 0.0063
IC50 (AC3): 253 µM
maximum level of suppression of ISO-induced cAMP accumulation (cardiac myocytes [2]): around 30%
ISO induced apoptosis in cultured cardiac myocytes [3]: prevented
contraction in cultured cardiac myocytes [3]: without impairing contraction
IC50 (AC5 [4]; [17]): 1.6 µM
IC50 (AC2 [5]): 2380 µM

Nc1ncnc2c1ncn2[C@H]1C[C@H](OP(=O)(O)O)[C@@H](CO)O1 [2′-d-3′-AMP]
IC50 (AC5 [4]; read-out: IC50 for AC5): 0.82 µM

Nc1ncnc2c1ncn2[C@@H]1O[C@H](CO)[C@@H](OP(=O)(O)O)[C@H]1O [3′-AMP]
IC50 (AC5 [4]; read-out: IC50 for AC5): 14.6 µM

Nc1ncnc2c1ncn2[C@@H]1O[C@H](CO)[C@@H](O)[C@@H]1O [AraAde, 9-β-D-arabinofuranosyladenine]
IC50 (AC3; [18]): 375 µM
forskolin induced cAMP production, hearts from AC5 Tg (AC5 [6]): dramatically decreased
forskolin induced cAMP production, hearts from AC6 Tg (AC6): not
maximum level of suppression of ISO-induced cAMP accumulation (cardiac myocytes [2]): around 30%
ISO induced apoptosis in cultured cardiac myocytes [3]: prevented
forskolin-induced LV dP/dt max [7]: attenuated
forskolin-induced cardiac output [7]: attenuated
plasma insulin level ([8]; 15 mg/kg/day, high-fat diet): unchanged; also recorded: the elevation in insulin was minimal
fasting blood glucose ([8]; 15 mg/kg/day, high-fat diet, vs vehicle): decreased
glucose tolerance ([8]; 94 days high fat diet, 42 days AraAde): improved
insulin resistance, HOMA IR ([8]; terminal blood after 6-7 hour fast, n=2): 6.38
ISO-induced cardiac fibrosis (PASR) ([9]; AraAde 100 μg/g/day): significantly inhibited
ISO-induced myocardial apoptosis (TUNEL) ([9]; AraAde 100 μg/g/day): significantly inhibited
chronic ISO-induced decreases in LVEF ([9]; AraAde 20 mg/kg/day for 1 week, echocardiography): inhibited
exercise performance, maximum treadmill speed ([9]; chronic ISO 60 mg/kg/day for 1 week, AraAde 15 mg/kg/day, n=4-6): rescued exercise performance
tolerability [10]: well tolerated
survival rate after myocardial infarction (myocardial infarction): increased
IC50 (AC5 [4]; [17]): 9.8 µM
bradykinesia and impaired locomotor activity (brain function): does not induce
IC50 (AC2 [5]): 7200 µM

Nc1ncnc2c1ncn2C1CCCC1 [CPA, 9-(cyclopentyl) adenine]
inhibition of AC3 (AC3): only to a modest degree
inhibition of AC5 (AC5 [11]): potently inhibited
inhibition of AC2 (AC2 [5]): only to a modest degree

C[N+](C)(C)CCOC(N)=O [Carbachol]
inhibition of ISO-stimulated AC activity in AC5KO ([12]; AC5KO heart membranes): did not inhibit
decrease of ISO-stimulated AC activity in WT ([12]; WT heart membranes): 21+/−3.4%

Nc1ncc2c(n1)CC(c1ccco1)CC2=O (stereo not drawn) [NKY80, 2-amino-7-(2-furanyl)-7,8-dihydro-5(6H)-quinazoline]
inhibition of purified AC5 protein in vitro (AC5 [13]): moderate inhibition
inhibition of cAMP accumulation in cultured cardiac myocytes (cardiac myocytes [14]): does not inhibit

Nc1ncnc2c1ncn2C1CCC(C(=O)NO)C1 (stereo not drawn) [PMC-6]
Selectivity ratio for AC5, AC5/AC2 (AC5 [1]): 0.0049
Selectivity ratio for AC5, AC5/AC3 (AC5 [1]): 0.029
IC50 (AC3; [18]): 11.1 µM
IC50 (AC5 [4]; [17]): 0.32 µM
IC50 (AC2 [5]): 65.3 µM

Nc1ncnc2c1ncn2C1CCCO1 (stereo not drawn) [THFA, 9-(tetrahydro-2-furyl) adenine]
selectivity ratio between AC5 and AC2 (AC5 [1]): 130
inhibition of AC3 (AC3): only to a modest degree
selectivity ratio between AC6 and AC2 (AC2 [15]): 1.8
inhibition of AC5 (AC5 [11]): potently inhibited
inhibition of AC2 (AC2 [5]): only to a modest degree

Nc1nc(F)nc2c1ncn2[C@@H]1O[C@H](CO)[C@@H](O)[C@@H]1O [fludarabine]
adverse effects in patients [16]: severe adverse effects including bone marrow suppression
